Data published in publication PMC12584752, “Covalent fragment screening to inhibit the E3 ligase activity of bacterial NEL enzymes SspH1 and SspH2” (RSC Chemical Biology, 2025).

Legend:
SspH2 (C580) = molecular target: T1, SspH2 (C580) (Salmonella typhimurium, UniProt D0ZPH9); experiment: IA-DTB competitive chemoproteomics in spiked HEK293T lysate; format: binding; settings: HEK293T lysate spiked with recombinant protein, four hours at RT
T1 construct: Recombinant SspH1 (aa 161–700) and SspH2 (aa 166–783) were both characterised; His-tag (N, cleaved yes); made in house; host or cells: E. coli BL21
Description: (§1) HEK293T lysate supplemented with recombinant SspH1 (161–700) and SspH2 (166–783) was treated with a dilution series […] of either compound 6 or 7 for four hours at RT. Following compound treatments, we used an iodoacetamide-desthiobiotin (IA-DTB) competitive chemoproteomics workflow to assess cysteine engagement.[52] Comparison of DMSO treated lysate with compound treated lysate enabled identification of peptides where IA-DTB labelling of cysteines was blocked due to fragment engagement (Fig. S5). […] Competition of the SspH2 C580 peptide occurred at lower concentrations compared to the SspH1 C492 peptide, which corroborated our previous kinetics experiments that both compounds label SspH2 faster than SspH1 (Fig. S4).
(§2) Fig. 5 Characterisation of protein interactions by compounds 6 and 7. (A) SspH1 and SspH2 catalytic cysteine labelling with compound 6 (100–3.125 μM, 4 hours) in HEK293T lysate spiked with recombinant SspH1 and SspH2. Data are presented as mean ± SEM, n = 4. The curves were fitted with GraphPad Prism 10 using four parameter nonlinear regression with baseline correction to DMSO-treated samples. (B) SspH1 and SspH2 catalytic cysteine labelling with compound 7 (100–3.125 μM, 4 hours) in HEK293T lysate spiked with recombinant SspH1 and SspH2. Data are presented as mean ± SEM, n = 4. The curves were fitted with GraphPad Prism 10 using four parameter nonlinear regression with baseline correction to DMSO-treated samples. (C) Volcano plot of IA-DTB competition in SspH1 expressing HEK293T cells treated with compound 6 (50 μM, 4 hours). (D) Volcano plot of IA-DTB competition in SspH2 expressing HEK293T cells treated with compound 6 (50 μM, 4 hours). Data is shown as compared to DMSO treated samples, with competed peptides in the upper left-hand quadrant. Competed catalytic cysteine-containing peptides of HECT E3s (yellow), UCH DUBs (blue) and OTU DUBs (purple) are indicated. All proteomics experiments were performed with technical quadruplicates.
(§3) A pellet of 50 × 10^6 HEK293T cells was resuspended in 5 mL lysis buffer (50 mM HEPES pH 8.0, 150 mM NaCl, 1% IGEPAL, 0.1% SDS, 0.5% Na-deoxycholate, supplemented with protease inhibitor cocktail (Sigma-Aldrich, P8340)). The lysate was sonicated and centrifuged (10 min, 17 000 × g) and the soluble fraction isolated. Protein concentrations were measured using a Rapid BCA Gold Protein Assay Kit (Thermo Scientific, A53226) and diluted to 0.75 mg mL^−1 with lysis buffer. The lysate was then spiked with 0.2 μM of each recombinant SspH1 (aa 161–700) and SspH2 (aa 166–783). For each condition, four wells were treated and processed separately, representing four technical replicates. 2 μL of 100× stocks of compounds 6 and 7 in DMSO (10–0.156 mM, and DMSO only control), and 200 μL lysate was added to a 96-well plate. […]

SspH1 (C492) = molecular target: T2, SspH1 (C492) (Salmonella typhimurium, UniProt D0ZVG2); experiment: as above; format: binding; settings: HEK293T lysate spiked with recombinant protein, four hours at RT
T2 construct: Recombinant IpaH9.8 (21–545) and SspH1 (161–700) were incubated at 0.5 μM; His-tag (N, cleaved yes); made in house; host or cells: E. coli BL21
Description: as §1, §2, §3

T1 sequence (D0ZPH9 166-783): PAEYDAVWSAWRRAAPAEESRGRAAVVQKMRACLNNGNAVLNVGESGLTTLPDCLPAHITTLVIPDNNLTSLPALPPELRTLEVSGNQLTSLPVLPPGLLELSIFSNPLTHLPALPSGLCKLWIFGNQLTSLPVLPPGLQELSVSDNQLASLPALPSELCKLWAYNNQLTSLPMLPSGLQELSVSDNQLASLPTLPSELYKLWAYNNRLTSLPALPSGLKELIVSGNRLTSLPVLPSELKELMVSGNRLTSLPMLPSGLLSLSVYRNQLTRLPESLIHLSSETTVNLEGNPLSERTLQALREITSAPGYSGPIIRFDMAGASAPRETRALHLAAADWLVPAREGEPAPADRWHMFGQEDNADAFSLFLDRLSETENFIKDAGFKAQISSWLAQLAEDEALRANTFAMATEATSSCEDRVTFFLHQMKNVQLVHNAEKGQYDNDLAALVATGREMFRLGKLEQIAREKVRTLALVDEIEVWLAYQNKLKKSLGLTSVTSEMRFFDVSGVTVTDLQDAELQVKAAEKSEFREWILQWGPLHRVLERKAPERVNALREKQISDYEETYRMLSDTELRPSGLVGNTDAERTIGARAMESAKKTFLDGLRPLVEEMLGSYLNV
T2 sequence (D0ZVG2 161-700): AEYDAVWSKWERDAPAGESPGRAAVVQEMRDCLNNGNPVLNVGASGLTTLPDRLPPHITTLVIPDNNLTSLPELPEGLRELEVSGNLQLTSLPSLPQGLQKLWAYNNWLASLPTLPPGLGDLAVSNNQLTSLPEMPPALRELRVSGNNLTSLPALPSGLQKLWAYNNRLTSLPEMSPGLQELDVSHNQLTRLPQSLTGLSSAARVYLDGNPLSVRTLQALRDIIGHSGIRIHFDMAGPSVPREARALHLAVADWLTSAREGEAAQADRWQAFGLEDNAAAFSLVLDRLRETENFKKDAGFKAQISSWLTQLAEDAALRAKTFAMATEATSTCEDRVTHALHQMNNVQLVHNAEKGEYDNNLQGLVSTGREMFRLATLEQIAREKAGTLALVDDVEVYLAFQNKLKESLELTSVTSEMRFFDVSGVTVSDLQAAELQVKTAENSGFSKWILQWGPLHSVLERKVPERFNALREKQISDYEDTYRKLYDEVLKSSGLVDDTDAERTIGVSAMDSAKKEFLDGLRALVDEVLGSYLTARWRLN

| Structure (SMILES) | competition of IA-DTB labelling of the C580 peptide for SspH2 (SspH2 (C580)) | competition of IA-DTB labelling of the C492 peptide for SspH1 (SspH1 (C492)) |
| --- | --- | --- |
| Cc1cc(-c2nc3ccccc3n2C2CCN(C(=O)CCl)CC2)cc(C)c1O.Cl [compound 6] | concentration-dependent competition | concentration-dependent competition |
| Cl.O=C(CCl)N1CCC(n2c(-c3ccc(C(F)(F)F)cc3)nc3ccccc32)CC1 [compound 7] | concentration-dependent competition | concentration-dependent competition |
